ChEMBL document CHEMBL3045906, “LCMS/MS method for simultaneous analysis of cladrin and equol in rat plasma and its application in pharmacokinetics study of cladrin” (Med Chem Res, 2011)

Assays:
Plasma = test: Drug recovery in Rattus norvegicus (rat) plasma at 50 ng/ml by LLE method; format: ADME, cell-free
[1] = Stability of the compound in Rattus norvegicus (rat) plasma at 7.8 ng/ml after three 24 hr cycles of freeze-thaw on storing at -80 degC; format: ADME, cell-free; conditions: read-out: Stability
[2] = Stability of the compound in Rattus norvegicus (rat) plasma at 62.5 ng/ml after three 24 hr cycles of freeze-thaw on storing at -80 degC; format: ADME, cell-free; conditions: read-out: Stability
[3] = Stability of the compound in Rattus norvegicus (rat) plasma at 1000 ng/ml after three 24 hr cycles of freeze-thaw on storing at -80 degC; format: ADME, cell-free; conditions: read-out: Stability
[4] = Stability of the compound in Rattus norvegicus (rat) plasma at 7.8 ng/ml after 2 months at -80 degC; format: ADME, cell-free; conditions: read-out: Stability
[5] = Stability of the compound in Rattus norvegicus (rat) plasma at 62.5 ng/ml after 2 months at -80 degC; format: ADME, cell-free; conditions: read-out: Stability
[6] = Stability of the compound in Rattus norvegicus (rat) plasma at 1000 ng/ml after 2 months at -80 degC; format: ADME, cell-free; conditions: read-out: Stability
[7] = Tmax in Rattus norvegicus Sprague-Dawley (rat) at 10 mg/kg, po; format: ADME, organism-based; parameters: dose 10 mg/kg, route oral; conditions: in vivo
[8] = Half life in Rattus norvegicus Sprague-Dawley (rat) at 10 mg/kg, po; format: ADME, organism-based; parameters: dose 10 mg/kg, route oral; conditions: in vivo
[9] = Cmax in Rattus norvegicus Sprague-Dawley (rat) at 10 mg/kg, po; format: ADME, organism-based; parameters: dose 10 mg/kg, route oral; conditions: in vivo
[10] = AUC (0 to alpha) in Rattus norvegicus Sprague-Dawley (rat) at 10 mg/kg, po; format: ADME, organism-based; parameters: dose 10 mg/kg, route oral; conditions: plasma
[11] = Mean residence time in Rattus norvegicus Sprague-Dawley (rat) at 10 mg/kg, po; format: ADME, organism-based; parameters: dose 10 mg/kg, route oral; conditions: in vivo

Row | Drug recovery (Plasma) [%] | remaining at 24 h, 7.8 ng/ml [1] [%] | remaining at 24 h, 62.5 ng/ml [2] [%] | remaining at 24 h, 1000 ng/ml [3] [%] | remaining at 1461 h, 7.8 ng/ml [4] [%] | remaining at 1461 h, 62.5 ng/ml [5] [%] | remaining at 1461 h, 1000 ng/ml [6] [%] | Tmax [7] [h] | half-life [8] [h] | Cmax [9] [ng/mL] | AUC [10] [ng·h/mL] | MRT [11] [h] | SMILES
1 | 85.3 |  |  |  |  |  |  |  |  |  |  |  | O=c1c(-c2ccccc2)coc2cc(O)ccc12 [7-HYDROXY ISOFLAVONE]
2 | 76.5 | 93.9 | 94.6 | 91.8 | 100 | 103 | 95.6 |  |  |  |  |  | Oc1ccc([C@H]2COc3cc(O)ccc3C2)cc1 [AUS-131]
3 | 83.5 | 93.6 | 98.5 | 88.2 | 106 | 84.5 | 81.4 | 0.5 | 4.1 | 44.8 | 609 | 10.8 | COc1ccc(-c2coc3cc(O)ccc3c2=O)cc1OC [CLADRIN]
